# Results reported in publication PMC10131204 (JACS Au, 2023).
# Where two headings read alike, the source gives them in different places.
# What was measured:
# DOR [1] = type: cell-based; settings: 10 µM compound, off-DNA
# FKBP-cSnap and FRB-nSnap = type: biochemical
# DOR [2] = settings: cited from earlier work
compound,measurement,setting,value
"Met-Enk-RF: a β-arrestin-biased DOR agonist peptide; strong G-protein bias for the MOR (YGGFMRF; Met-enkephalin-Arg-Phe; UniProt P01210 261-267, looked up)",biotinylation of the DOR (β-arrestin activation) in gel-based assay,DOR [1],markedly increased the biotinylation level
"CCC(C)(C)C(=O)C(=O)N1CCCC[C@H]1C(=O)O[C@H](CCc1ccc(OC)c(OC)c1)c1cccc(OCC(=O)O)c1 [SLF, synthetic ligand for FKBP]",protein labeling with BG-FAM (SnapTag reconstitution),FKBP-cSnap and FRB-nSnap,did not induce protein labeling
Dmt-Pro-Phe-Phe,Ki,DOR [2]; high-affinity parental peptide,~28 nM
Tyr-Tic,Ki,DOR [2]; low-affinity parental peptide,~240 nM
